Test results reported in patent US20230338391A1, “TREATMENT FOR DEPRESSION” (TAKEDA PHARMACEUTICAL COMPANY LIMITED, priority 2020, published 2023).

Test system: healthy subjects
Experiment: TMS crossover study: safety and tolerability
Conditions: 0.5 mg/kg IV infusion, 20 subjects

**Q.** `CNC1(c2ccccc2Cl)CCCCC1=O` (stereo not shown) [ketamine, reference compound] was tested. Which “discontinuation because of AEs” value did it give?
**A.** One subject in the ketamine treatment was discontinued from study drug because of AEs
